Measurements reported in US20080274892A1, “Novel Haloalkylsulfonanilide Derivative, Herbicide, and Method of Use Thereof” (priority 2005, published 2008).

Columns and labels:
bulrush [1] = experiment: Test Example 1: herbicidal efficacy on rice paddy weeds pre-emergence; type: in vivo, Scirpus juncoides; conditions: 21 days
false pimpernel [2] = experiment: as above; type: in vivo, Lindernia pyxidaria; conditions: 21 days
barnyard glass = experiment: Test Example 2: herbicidal efficacy on rice paddy weeds post-emergence; type: in vivo, Echinochloa crus-galli; conditions: post-emergence, one leaf stage, 21 days after treatment
Method in brief: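 Plastic pots of 75 cm^2 were filled with clay loam soil and sown with barnyard glass and bulrush seeds, then topped with 75 cm^3 soil containing false pimpernel seeds. The pots were flooded to 5 cm water depth and held in a hot house. Twenty-one days after treatment, herbicidal efficacy was graded against an untreated control.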

bulrush [3] = experiment: as above; type: in vivo, Scirpus juncoides; conditions: post-emergence, one leaf stage, 21 days after treatment
false pimpernel [4] = experiment: as above; type: in vivo, Lindernia pyxidaria; conditions: post-emergence, one leaf stage, 21 days after treatment
[5] = system: paddy rice plant (cultivar: Nihonbare); experiment: Test Example 3: phytotoxicity test for transplanted paddy rice plant; type: in vivo; conditions: transplanted rice, 21 days after treatment
Method in brief: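 Clay loam soil was placed in a 75 cm^2 plastic pot and flooded to a water depth of 5 cm. Two Nihonbare paddy rice plants at the two-leaf stage were transplanted 1 cm deep and grown in a hot house. After treatment, pots stayed in the hot house for 21 days, and phytotoxicity was then graded against an untreated control.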

bulrush [6] = experiment: Test Example 4: low dosage test for rice paddy weeds; type: in vivo, Scirpus juncoides; conditions: 300 g/ha as an active ingredient; plants treated at the one leaf stage; 21 days after treatment; vs untreated control
Method in brief: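 Bulrush sown in clay loam pots, flooded to 5 cm water in a hot house, treated at the one-leaf stage with formulated compound at 300 g/ha. Efficacy scored 0–4 against untreated control 21 days after treatment (4 = 90–100%, 0 = 0% inhibition).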

[7] = system: transplanted paddy rice plant and Bulrush; experiment: Test Example 5: selectivity between transplanted paddy rice plant and weeds; type: in vivo; conditions: (highest dosage with no phytotoxicity to paddy rice)/(lowest dosage with effective level 4 on Bulrush); rice 3000-100 g/ha, Bulrush 300-10 g/ha; 21 days
Method in brief: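 Transplanted paddy rice was treated at 3000, 1000, 300 and 100 g/ha active ingredient for phytotoxicity, and post-emergence bulrush at 300, 100, 30 and 10 g/ha. Plants were kept in a hothouse for 21 days. Growth inhibition versus untreated control was scored 0–4 (0%, 1–39%, 40–69%, 70–89%, 90–100%).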

[8] = dosage 1000 g/ha, treated 5 days after transplantation

SMILES | Bulrush pre (herbicidal efficacy grade) (bulrush [1]; dosage 1000 g/ha) | False pimpernel pre (herbicidal efficacy grade) (false pimpernel [2]; dosage 1000 g/ha) | Burnyard grass post (herbicidal efficacy grade) (barnyard glass; dosage 1000 g/ha) | Bulrush post (herbicidal efficacy grade) (bulrush [3]; dosage 1000 g/ha) | False pimpernel post (herbicidal efficacy grade) (false pimpernel [4]; dosage 1000 g/ha) | Phytotoxicity to paddy rice [5, 8] | Herbicide effect to Bulrush (bulrush [6]) | Selective Index [7] | Bulrush pre (herbicidal efficacy grade) (bulrush [1]; dosage 300 g/ha) | False pimpernel pre (herbicidal efficacy grade) (false pimpernel [2]; dosage 300 g/ha) | Burnyard grass post (herbicidal efficacy grade) (barnyard glass; dosage 300 g/ha) | Bulrush post (herbicidal efficacy grade) (bulrush [3]; dosage 300 g/ha) | False pimpernel post (herbicidal efficacy grade) (false pimpernel [4]; dosage 300 g/ha) | Phytotoxicity to paddy rice ([5]; dosage 300 g/ha)
CCCCCOC(=O)N(c1ccccc1CN1CC(C)(CC)OC1=O)S(=O)(=O)C(F)(F)F (centres unmarked) [1-91] | 4 (90%-100% of herbicidal efficacy or phytotoxicity) | 4 (90%-100% of herbicidal efficacy or phytotoxicity) | 4 (90%-100% of herbicidal efficacy or phytotoxicity) | 4 (90%-100% of herbicidal efficacy or phytotoxicity) | 4 (90%-100% of herbicidal efficacy or phytotoxicity) | 3 (70%-89% of herbicidal efficacy or phytotoxicity) | 4 (90%-100% of herbicidal efficacy or phytotoxicity) | 30 | – | – | – | – | – | –
CCC1(C)CN(Cc2ccccc2NS(=O)(=O)C(F)(F)F)C(=O)O1 (racemic) [1-59] | – | – | – | – | – | – | 4 (90%-100% of herbicidal efficacy or phytotoxicity) | 3.3 | 4 (90%-100% of herbicidal efficacy or phytotoxicity) | 4 (90%-100% of herbicidal efficacy or phytotoxicity) | 3 (70%-89% of herbicidal efficacy or phytotoxicity) | 4 (90%-100% of herbicidal efficacy or phytotoxicity) | 4 (90%-100% of herbicidal efficacy or phytotoxicity) | 3 (70%-89% of herbicidal efficacy or phytotoxicity)
CC1(C)CN(Cc2ccccc2NS(=O)(=O)C(F)(F)F)C(=O)O1 [1-43] | 4 (90%-100% of herbicidal efficacy or phytotoxicity) | 4 (90%-100% of herbicidal efficacy or phytotoxicity) | 4 (90%-100% of herbicidal efficacy or phytotoxicity) | 4 (90%-100% of herbicidal efficacy or phytotoxicity) | 4 (90%-100% of herbicidal efficacy or phytotoxicity) | 2 (40%-69% of herbicidal efficacy or phytotoxicity) | 4 (90%-100% of herbicidal efficacy or phytotoxicity) | 10 | – | – | – | – | – | –
CCC1(CC)CN(Cc2ccccc2N(C(=O)OCC(C)C)S(=O)(=O)C(F)(F)F)C(=O)O1 [1-62] | 4 (90%-100% of herbicidal efficacy or phytotoxicity) | 4 (90%-100% of herbicidal efficacy or phytotoxicity) | 4 (90%-100% of herbicidal efficacy or phytotoxicity) | 4 (90%-100% of herbicidal efficacy or phytotoxicity) | 4 (90%-100% of herbicidal efficacy or phytotoxicity) | 1 (1%-39% of herbicidal efficacy or phytotoxicity) | 4 (90%-100% of herbicidal efficacy or phytotoxicity) | 10 | – | – | – | – | – | –
COC(=O)N(c1ccccc1CN1C(=O)OCC1C)S(=O)(=O)C(F)(F)F (centres unmarked) [1-150] | 4 (90%-100% of herbicidal efficacy or phytotoxicity) | 4 (90%-100% of herbicidal efficacy or phytotoxicity) | 4 (90%-100% of herbicidal efficacy or phytotoxicity) | 4 (90%-100% of herbicidal efficacy or phytotoxicity) | 4 (90%-100% of herbicidal efficacy or phytotoxicity) | 2 (40%-69% of herbicidal efficacy or phytotoxicity) | 4 (90%-100% of herbicidal efficacy or phytotoxicity) | 10 | – | – | – | – | – | –
CCC1(C(C)C)CN(Cc2ccccc2NS(=O)(=O)C(F)(F)F)C(=O)O1 (centres unmarked) [1-131] | 4 (90%-100% of herbicidal efficacy or phytotoxicity) | 4 (90%-100% of herbicidal efficacy or phytotoxicity) | 4 (90%-100% of herbicidal efficacy or phytotoxicity) | 4 (90%-100% of herbicidal efficacy or phytotoxicity) | 4 (90%-100% of herbicidal efficacy or phytotoxicity) | 2 (40%-69% of herbicidal efficacy or phytotoxicity) | 4 (90%-100% of herbicidal efficacy or phytotoxicity) | 10 | – | – | – | – | – | –
CCOC(=O)N(c1ccccc1CN1CC(C)(C)OC1=O)S(=O)(=O)C(F)(F)F [1-80] | 4 (90%-100% of herbicidal efficacy or phytotoxicity) | 4 (90%-100% of herbicidal efficacy or phytotoxicity) | 4 (90%-100% of herbicidal efficacy or phytotoxicity) | 4 (90%-100% of herbicidal efficacy or phytotoxicity) | 4 (90%-100% of herbicidal efficacy or phytotoxicity) | 2 (40%-69% of herbicidal efficacy or phytotoxicity) | 4 (90%-100% of herbicidal efficacy or phytotoxicity) | 30 | – | – | – | – | – | –
CC1(C)OC(=O)N(Cc2ccccc2NS(=O)(=O)C(F)(F)F)C1=O [Compound No. 1-187, 5,5-dimethyl-3-[2-(trifluoromethanesulfonylamino)benzyl]oxazolidine-2,4-dione] | 4 (90%-100% of herbicidal efficacy or phytotoxicity) | 4 (90%-100% of herbicidal efficacy or phytotoxicity) | 4 (90%-100% of herbicidal efficacy or phytotoxicity) | 4 (90%-100% of herbicidal efficacy or phytotoxicity) | 4 (90%-100% of herbicidal efficacy or phytotoxicity) | 3 (70%-89% of herbicidal efficacy or phytotoxicity) | 4 (90%-100% of herbicidal efficacy or phytotoxicity) | ≧10 | – | – | – | – | – | –
CCCCCCCOC(=O)N(c1ccccc1CN1CC(C)(C)OC1=O)S(=O)(=O)C(F)(F)F [1-94] | 4 (90%-100% of herbicidal efficacy or phytotoxicity) | 4 (90%-100% of herbicidal efficacy or phytotoxicity) | 4 (90%-100% of herbicidal efficacy or phytotoxicity) | 4 (90%-100% of herbicidal efficacy or phytotoxicity) | 4 (90%-100% of herbicidal efficacy or phytotoxicity) | 1 (1%-39% of herbicidal efficacy or phytotoxicity) | 4 (90%-100% of herbicidal efficacy or phytotoxicity) | ≧30 | – | – | – | – | – | –
CC(C)COC(=O)N(c1ccccc1CN1CC(C)(C2(C)CC2)OC1=O)S(=O)(=O)C(F)(F)F (centres unmarked) [1-168] | 4 (90%-100% of herbicidal efficacy or phytotoxicity) | 4 (90%-100% of herbicidal efficacy or phytotoxicity) | 4 (90%-100% of herbicidal efficacy or phytotoxicity) | 4 (90%-100% of herbicidal efficacy or phytotoxicity) | 4 (90%-100% of herbicidal efficacy or phytotoxicity) | 1 (1%-39% of herbicidal efficacy or phytotoxicity) | 4 (90%-100% of herbicidal efficacy or phytotoxicity) | 10 | – | – | – | – | – | –
